For assay [1] the following is noted: rat des-Gln14-ghrelin; cited from earlier work.
Assay [2] has as its system ob/ob mice. As to the kind of experiment: Feeding test in ob/ob mice. Type of assay: in vivo. As to conditions: IP.
Assay [3] has as its system gastric emptying rate in mice. In words: Gastric emptying. Type of assay: in vivo. As to conditions: IP, one hour after administration. The method, then:
Before the experiments on gastric emptying, mice were food deprived for 16 hours with free access to water. The fasted mice had free access to pre-weighed pellets for one hour and were then administered [D-Lys-3]-GHRP-6. The mice were deprived of food again for one or two hours after administration. Food intake was measured by weighing the uneaten pellets. Mice were killed by cervical dislocation two or three hours after the start of the experiments. Immediately after that, the stomach was exposed by laparotomy, quickly ligated at both the pylorus and cardia, then removed, and its dry content was weighed. Gastric emptying was calculated according to the following formula: gastric emptying (%)={1−(dry weight of food recovered from the stomach/weight of food intake)}×100. (8) Repeated Administration

In assay [4] the target is T1, GHS-R in the brain (Mus musculus, UniProt Q99P50).
T1 construct: possibility that ghrelin would act through GHS-R in the brain; from tissue; host or cells: brain of living mice (ICV administration)
In words: Simultaneous administration of ghrelin (IP) and [D-Lys-3]-GHRP-6 (ICV), food intake. Type of assay: in vivo, mice. As to conditions: free access to food. The method, then: For ICV administration, the mice were anesthetized with sodium pentobarbital (80-85 mg/kg IP) and placed in a stereotaxic instrument (SR-6, Narishige, Tokyo, Japan) seven days before the experiments. A hole was made in each skull by using a needle inserted 0.9 mm lateral to the central suture and 0.9 mm posterior to the bregma. A 24-gauge cannula (Safelet-Cas, Nipro, Osaka, Japan) beveled at one end over a distance of 3 mm was implanted into the third cerebral ventricle for ICV administration. The cannula was fixed to the skull with dental cement and capped with silicon. A 27-gauge injection insert was attached to a microsyringe by PE-20 tubing.
Before feeding tests, mice were food deprived for 16 hours with free access to water, except during an experiment on the effect of co-administration of [D-Lys-3]-GHRP-6 and ghrelin on food intake, in which mice were given free access to food and water. Food intake was measured by subtracting uneaten food from the initially pre-measured food at 20 minutes, 1, 2 and 4 hours after administration.
In order to evaluate the possibility that ghrelin would act through GHS-R in the brain, the inventors examined the effects of simultaneous administration of ghrelin and [D-Lys-3]-GHRP-6 on food intake.

The subject of assay [5] is food-deprived mice. As to the kind of experiment: Feeding tests in food-deprived lean mice. Type of assay: in vivo. As to conditions: for Food intake: IP administration, food-deprived mice.
In assay [6] the test system is mice with diet-induced obesity. In words: Feeding test in mice with diet-induced obesity. The assay is classed as in vivo. As to conditions: IP, acute.
For assay [7], the system named is ob/ob obese mice. As to the kind of experiment: Repeated IP administration of [D-Lys-3]-GHRP-6 in ob/ob obese mice. The assay is classed as in vivo.
Assay [8] concerns pituitary gland cells. As to conditions: primary culture of pituitary gland cells; cited from earlier work.
Assay [9] concerns leptin and resistin mRNA in WAT. As to conditions: repeated IP administrations of ghrelin. The protocol: (§1) Repeated IP administrations were continued for five days in lean mice under a high-fat diet or a standard diet, and for six days in […] obese mice under a standard diet, respectively. The mice were given the administration at 7:00 AM and 19:00 PM. Food intake and body weight were measured daily. Serum was separated from blood obtained from the orbital sinus under ether anesthesia at the end of the experiment (eight hours after removal of food and the final IP administration). Mice were killed by cervical dislocation. Immediately after that, the epididymal fat pad mass assessed as white adipose tissue (WAT) and the gastrocnemius muscle were removed and weighed. Blood glucose was measured by the glucose oxidase method. Serum insulin and free fatty acids (FFA) were measured by enzyme immunoassay and enzymatic method (EIKEN CHEMICAL CO., LTD., Tokyo, Japan), respectively. Serum triglycerides and total cholesterol were measured by an enzymatic method (Wako Pure Chemical Industries, Ltd., Tokyo, Japan).
(§2) Subsequently, mRNA levels of leptin, adiponectin and resistin in WAT were assessed.

The subject of assay [10] is lean mice under a high-fat diet. The protocol: Male mice of the ddy strain (34-37 g, JAPAN SLC, Shizuoka, Japan) and obese (ob/ob) C57BL/6J mice (68-74 g, Shionogi Co., Ltd., Shiga, Japan) were used. They were individually housed in a regulated environment (22±2° C., 55±10% humidity, 12:12 hour light:dark cycle with light on at 7:00 AM). Mice received a standard diet containing 12% of total energy as fat or a high-fat diet containing 45% of total energy as fat (CLEA Japan, INC., Tokyo, Japan). Food and water were available ad lib except as otherwise indicated. All experiments were approved by Kobe University animal care committee.
[D-Lys-3]-GHRP-6, [D-Arg-1, D-Phe-5, D-Trp-7, 9, Leu-11] substance P and rat ghrelin were purchased from BACHEM CALIFORNIA INC. (Torrance, Calif., USA), NEOSYSTEM (Strasbourg, France) and Peptide Institute (Osaka, Japan), respectively. Just before administration, each drug was diluted in 4 μl of artificial cerebrospinal fluid (ACSF) for intra-third cerebroventricular (ICV) administration or in 100 μl of physiological saline for intraperitoneal (IP) administration. Results are expressed as mean value±s.e.m. Analysis of variance(ANOVA) followed by Bonferroni's t test was used to assess the differences among groups. P<0.05 was considered to be statistically significant.
as §1, §2

In assay [11] the target is GHS-R (Rattus norvegicus, UniProt O08725). As to conditions: CHO cells having GHS-R expressed, chemically synthesized ghrelin; cited from earlier work.
The test system of assay [12] is rats. As to conditions: rats in vivo; cited from earlier work.
Where [13] appears, read: 20 nmol IP every 12 hours for 6 days.
Where [14] appears, read: 200 nmol IP every 12 hours for 6 days.
Setting [15] is: HF diet, every 12 hours for 5 days, lean mice, mean ± s.e.m.
Setting [16] is: IP 3 nmol/mouse twice daily for five days.
Setting [17] is: IP 3 nmol/mouse twice daily for five days, high-fat diet.

No end group written: not given here.

T1 sequence (Q99P50 whole entry): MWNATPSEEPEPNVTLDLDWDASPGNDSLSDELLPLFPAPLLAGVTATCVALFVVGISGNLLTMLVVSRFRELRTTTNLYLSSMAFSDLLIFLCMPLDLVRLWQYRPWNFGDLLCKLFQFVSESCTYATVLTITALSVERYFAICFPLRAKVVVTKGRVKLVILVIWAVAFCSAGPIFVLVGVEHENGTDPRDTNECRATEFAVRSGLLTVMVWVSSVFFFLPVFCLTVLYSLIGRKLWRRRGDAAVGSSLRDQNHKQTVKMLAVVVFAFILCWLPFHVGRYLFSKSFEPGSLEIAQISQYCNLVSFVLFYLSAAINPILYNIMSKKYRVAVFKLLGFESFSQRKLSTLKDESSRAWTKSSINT
GHS-R, sequence (O08725 whole entry): as the sequence (Q99P50 whole entry) above, with S30P, S249A counted along it

Regarding “des-Gln14-ghrelin: ghrelin analog in which Gln 14 in ghrelin is deleted (GSSFLSPEHQKAQRKESKKPPAKLQPR; ends and bridges not checked; UniProt Q9QYH7 24-51, looked up, variant Q14*)”, the “Growth hormone releasing activity relative to ghrelin” value in assay [1] was “the same intensity of growth hormone releasing activity”.
With [D-Lys-3]-GHRP-6, the Food intake entry in assay [2] is “significantly reduced food intake in ob/ob mice”. In addition, in [3], the Gastric emptying rate result was “significant decrease in the gastric emptying rate”. The “Effect on feeding induced by IP administration of ghrelin” value in assay [4] ([D-Lys-3]-GHRP-6 ICV) is listed as “abolished the stimulatory effects on the feeding”. Moreover, the Feeding behavior result in [5] (ICV administration) is “potent decrease in feeding behavior”. Further, the Food intake entry in assay [5] is given as “significantly reduced food intake in a dose-dependent manner”. Besides, in assay [6], the Body weight gain entry is on record as “resulting decrease in body weight gain” and the Food intake entry is “decreased potently”. For the same substance, in [7] (setting [13]), the Cholesterol turned out to be 219.0 ± 11.24 mg/dL, the “Fat pad mass (epididymal)” value stood at 0.897 ± 0.169 g, the Food intake was determined as 4.527 ± 0.261 g/day and the Free fatty acids stood at 2.036 ± 0.121 meq/l. For the same substance, in assay [7] (setting [13]), the “Glucose (blood)” value is 217.3 ± 27.90 mg/dL, the Insulin worked out at 41.61 ± 10.85 ng/mL, the “Skeletal muscle (gastrocnemius)” value worked out at 0.314 ± 0.009 g and the Triglycerides worked out at 38.57 ± 3.551 mg/dL. In assay [7] (setting [14]), the Cholesterol came out at 228.4 ± 21.84 mg/dL, the “Fat pad mass (epididymal)” value was determined as 0.860 ± 0.086 g, the Food intake is recorded as 4.285 ± 0.298 g/day and the Free fatty acids stood at 1.646 ± 0.078 meq/l. For the same substance, in [7] (setting [14]), the “Glucose (blood)” value came to 134.9 ± 19.47 mg/dL, the Insulin was 36.54 ± 8.695 ng/mL, the “Skeletal muscle (gastrocnemius)” value was found to be 0.326 ± 0.013 g and the Triglycerides stood at 41.14 ± 5.990 mg/dL. In assay [7] (repeated administrations), the Blood glucose concentrations result is listed as “significantly lowered”, the Body weight gain result is “significantly lowered”, the Muscle weight result is recorded as “without reducing the muscle weight” and the “Reduction of FFA levels compared with physiological saline-treated ob/ob mice” value is on record as 24%.
Turning to “[D-Arg-1, D-Phe-5, D-Trp-7, 9, Leu-11] substance P”, the Food intake result in [5] is reported as “significantly reduced food intake in a dose-dependent manner”.
In the case of ghrelin, the Growth hormone release result in [8] is listed as “activity of releasing growth hormone”. Moreover, in [9], the “Leptin mRNA expression in WAT” value is reported as “increased” and the “Resistin mRNA expression in WAT” value is recorded as “reducing”. In assay [4], the “Feeding after IP ghrelin” value is “stimulatory effects on the feeding”. In assay [10] (setting [15]), the Calorie intake turned out to be 25.94 ± 2.562 kcal/day, the Cholesterol was 224.8 ± 19.69 mg/dL, the “Fat pad mass (epididymal)” value turned out to be 1.202 ± 0.175 g and the Free fatty acids was determined as 1.636 ± 0.047 meq/l. Moreover, in assay [10] (setting [15]), the “Glucose (blood)” value was 160.5 ± 8.977 mg/dL, the Insulin turned out to be 2.520 ± 0.945 ng/mL, the “Skeletal muscle (gastrocnemius)” value turned out to be 0.340 ± 0.005 g and the Triglycerides is 32.80 ± 7.965 mg/dL. Further, in assay [10] (setting [16]), the “Fat pad mass increase compared with saline-treated mice fed high-fat diet” value is given as 125% and the “Fat pad mass increase compared with saline-treated mice fed standard diet” value stood at 49%. For the same substance, in [10] (setting [17]), the Blood glucose concentrations entry is recorded as “moderate increase”, the Body weight gain result was “increased significantly”, the Daily energy intake entry is reported as “concomitant increase” and the Serum cholesterol level entry is “also increased”. Besides, in assay [10] (setting [17]), the Serum insulin level result is recorded as “also increased” and the Skeletal muscle weight entry is listed as “did not show any increase in weight”. Moreover, the “Amount having the activity of elevating intracellular Ca++” value in assay [11] is “nanomolar order”. Further, the “Growth hormone in the blood” value in assay [12] is given as “elevates growth hormone in the blood”.

These data come from patent publication US20060276381A1, “Remedy for diabetes” (Chugai Seiyaki Kabushiki Kaisha, priority 2002, published 2006).
